Experimental data as given in PubChem BioAssay AID1259407 (Chemical Carcinogenesis Research Information System (CCRIS), 2018).
The source made the active and inactive calls. The rule behind the calls is not given here.

System: CCRIS mutagenicity, Ames/micronucleus/aberration tests
Assay: CCRIS mutagenicity studies

CC(C)N(C(=O)SCC(Cl)=C(Cl)Cl)C(C)C
mutagenic call (Test System: AMES SALMONELLA TYPHIMURIUM, Strain/Indicator: TA98, Metabolic Activation: NONE, Method: STANDARD PLATE): inactive; negative
mutagenic call (Test System: AMES SALMONELLA TYPHIMURIUM, Strain/Indicator: TA98, Metabolic Activation: RAT, LIVER, S-9, AROCLOR 1254, Method: STANDARD PLATE): active; positive
mutagenic call (Test System: AMES SALMONELLA TYPHIMURIUM, Strain/Indicator: TA100, Metabolic Activation: NONE, Method: STANDARD PLATE): inactive; negative
mutagenic call (Test System: AMES SALMONELLA TYPHIMURIUM, Strain/Indicator: TA100, Metabolic Activation: RAT, LIVER, S-9, AROCLOR 1254, Method: STANDARD PLATE): active; positive
mutagenic call (Test System: AMES SALMONELLA TYPHIMURIUM, Strain/Indicator: TA1535, Metabolic Activation: NONE, Method: STANDARD PLATE): inactive; negative
mutagenic call (Test System: AMES SALMONELLA TYPHIMURIUM, Strain/Indicator: TA1535, Metabolic Activation: RAT, LIVER, S-9, AROCLOR 1254, Method: STANDARD PLATE): active; positive
mutagenic call (Test System: AMES SALMONELLA TYPHIMURIUM, Strain/Indicator: TA1537, Metabolic Activation: NONE, Method: STANDARD PLATE): inactive; negative
mutagenic call (Test System: AMES SALMONELLA TYPHIMURIUM, Strain/Indicator: TA1537, Metabolic Activation: RAT, LIVER, S-9, AROCLOR 1254, Method: STANDARD PLATE): inactive; negative
mutagenic call (Test System: AMES SALMONELLA TYPHIMURIUM, Strain/Indicator: TA1538, Metabolic Activation: NONE, Method: STANDARD PLATE): inactive; negative
mutagenic call (Test System: AMES SALMONELLA TYPHIMURIUM, Strain/Indicator: TA1538, Metabolic Activation: RAT, LIVER, S-9, AROCLOR 1254, Method: STANDARD PLATE): inactive; negative

Cc1ccccc1N=Nc1ccc(N(C)C)cc1
mutagenic call (Test System: AMES SALMONELLA TYPHIMURIUM, Strain/Indicator: TA98, Metabolic Activation: HAMSTER, LIVER, S-9, AROCLOR 1254 (10%), Method: PREINCUBATION): inactive; negative
mutagenic call (Test System: AMES SALMONELLA TYPHIMURIUM, Strain/Indicator: TA98, Metabolic Activation: NONE, Method: PREINCUBATION): inactive; negative
mutagenic call (Test System: AMES SALMONELLA TYPHIMURIUM, Strain/Indicator: TA98, Metabolic Activation: RAT, LIVER, S-9, AROCLOR 1254 (10%), Method: PREINCUBATION): inactive; negative
mutagenic call (Test System: AMES SALMONELLA TYPHIMURIUM, Strain/Indicator: TA100, Metabolic Activation: HAMSTER, LIVER, S-9, AROCLOR 1254 (10%), Method: PREINCUBATION): inactive; negative
mutagenic call (Test System: AMES SALMONELLA TYPHIMURIUM, Strain/Indicator: TA100, Metabolic Activation: NONE, Method: PREINCUBATION): inactive; negative
mutagenic call (Test System: AMES SALMONELLA TYPHIMURIUM, Strain/Indicator: TA100, Metabolic Activation: RAT, LIVER, S-9, AROCLOR 1254 (10%), Method: PREINCUBATION): inactive; negative
mutagenic call (Test System: AMES SALMONELLA TYPHIMURIUM, Strain/Indicator: TA1535, Metabolic Activation: HAMSTER, LIVER, S-9, AROCLOR 1254 (10%), Method: PREINCUBATION): inactive; negative
mutagenic call (Test System: AMES SALMONELLA TYPHIMURIUM, Strain/Indicator: TA1535, Metabolic Activation: NONE, Method: PREINCUBATION): inactive; negative
mutagenic call (Test System: AMES SALMONELLA TYPHIMURIUM, Strain/Indicator: TA1535, Metabolic Activation: RAT, LIVER, S-9, AROCLOR 1254 (10%), Method: PREINCUBATION): inactive; negative
mutagenic call (Test System: AMES SALMONELLA TYPHIMURIUM, Strain/Indicator: TA1537, Metabolic Activation: HAMSTER, LIVER, S-9, AROCLOR 1254 (10%), Method: PREINCUBATION): inactive; negative
mutagenic call (Test System: AMES SALMONELLA TYPHIMURIUM, Strain/Indicator: TA1537, Metabolic Activation: NONE, Method: PREINCUBATION): inactive; negative
mutagenic call (Test System: AMES SALMONELLA TYPHIMURIUM, Strain/Indicator: TA1537, Metabolic Activation: RAT, LIVER, S-9, AROCLOR 1254 (10%), Method: PREINCUBATION): inactive; negative
mutagenic call (Test System: E. COLI, Strain/Indicator: WP2 UVRA, Metabolic Activation: HAMSTER, LIVER, S-9, AROCLOR 1254, Method: STANDARD PLATE): inactive; negative
mutagenic call (Test System: E. COLI, Strain/Indicator: WP2 UVRA, Metabolic Activation: HAMSTER, LIVER, S-9, Method: STANDARD PLATE): inactive; negative
mutagenic call (Test System: E. COLI, Strain/Indicator: WP2 UVRA, Metabolic Activation: MOUSE, LIVER, S-9, AROCLOR 1254, Method: STANDARD PLATE): inactive; negative
mutagenic call (Test System: E. COLI, Strain/Indicator: WP2 UVRA, Metabolic Activation: MOUSE, LIVER, S-9, Method: STANDARD PLATE): inactive; negative
mutagenic call (Test System: E. COLI, Strain/Indicator: WP2 UVRA, Metabolic Activation: NONE, Method: STANDARD PLATE): inactive; negative
mutagenic call (Test System: E. COLI, Strain/Indicator: WP2 UVRA, Metabolic Activation: RAT, LIVER, S-9, AROCLOR 1254, Method: STANDARD PLATE): inactive; negative
mutagenic call (Test System: E. COLI, Strain/Indicator: WP2 UVRA, Metabolic Activation: RAT, LIVER, S-9, Method: STANDARD PLATE): inactive; negative
